The structures appear in SMILES notation. A value given as a limit tells only on which side of the number the result lay.

Drawing on PubChem BioAssay AID1626 (SRMLSC, 2009), this text covers IC50, IC90 and CC50 for 68 compounds.

The experiment concerns M. tuberculosis H37Rv growth inhibition. Description: M. tuberculosis H37Rv growth inhibitors, H37Rv strain (AID 1626). Conditions: for IC90: measured here: IC90 against H37Rv; for CC50: measured here: Vero cell cytotoxicity.

Broadly, the IC50 is the midpoint of a concentration-inhibition curve. In general, IC90 refers to the point of the concentration-response curve where the effect stands at 90%. A lower IC90 goes with an effect from little substance. `CCC(=O)Nc1nc(-c2cc([N+](=O)[O-])cs2)cs1`: the IC50 was under 0.195 µM and the IC90 was over 100 µM.

For the compound `O=c1c([N+](=O)[O-])cc(C(F)(F)F)cn1Cc1cccc(Cl)c1`, the IC50 is 8.56 µM and the IC90 turned out to be 22.2 µM.

The term CC50 denotes the concentration at which the toxic effect on the cells reaches its halfway point. The low end stands for greater toxicity to the cells, the high end for lower toxicity to the cells. Take `Cc1cccc(CN2CCCC(C(=O)c3cccc(OC(C)C)c3)C2)n1` (stereo not given): the IC50 was 12.3 µM, the IC90 was over 100 µM and the CC50 is over 40 µM.

`CCOC(=O)CSc1ccc(-c2nc3ccccc3[nH]2)cn1`: the IC50 was 2.98 µM, the 90% effect concentration (IC90) turned out to be 5.54 µM and the CC50 is over 40 µM.

In the case of `Cc1ccc(NCCC(=O)c2cccs2)cc1`, the IC50 is 24.8 µM and the IC90 worked out at 32.7 µM.

As for `O=[N+]([O-])c1ccc(N=Nc2c(Cl)cc(O)cc2Cl)cc1`, the IC50 was 1.64 µM, the IC90 worked out at 2.41 µM and the CC50 stood at 5.17 µM.

As for `O=C(COc1ccccc1[N+](=O)[O-])c1ccccc1`, the IC50 is 17 µM, the IC90 was over 100 µM and the CC50 came out at 30 µM.

With `Cc1ccc(NC(=O)C2CCCCC2C(=O)O)cc1Cl` (stereo not given), the IC90 is over 100 µM.

As for `Cc1ccc(-c2csc3nc[nH]c(=S)c23)cc1C`, the IC50 was 20 µM, the IC90 is over 100 µM and the CC50 is 26.1 µM.

Take `CC(C)=CCOc1ccc([C@@H]2COc3c(ccc4c3C=CC(C)(C)O4)C2)c(O)c1`: the IC50 is 19.4 µM, the IC90 stood at 60.9 µM and the CC50 is over 40 µM.

`C/C=C/c1ccc(OCC(=O)OCc2csc(Nc3ccc(C)cc3)n2)c(OC)c1`: the IC50 is 3.83 µM and the IC90 was 8.62 µM.

On to `COc1ccc(N/C=C2\CCc3ccccc3C2=O)cc1`, for which the IC90 is over 100 µM and the CC50 is over 40 µM.

With `Nc1nc(CCl)nc(Nc2ccccc2)n1`, the IC50 was 31.2 µM, the IC90 is over 100 µM and the CC50 was 3.32 µM.

`CCOc1ccc(N2C(=O)/C(=C\c3ccc(OC)c(O)c3)S(=O)(=O)C2c2cccc([N+](=O)[O-])c2)cc1` (stereo not given): the IC90 was over 100 µM.

In the case of `Clc1ccc(COC(Cn2ccnc2)c2ccc(Cl)cc2Cl)cc1` (stereo not given), the 50% inhibitory concentration (IC50) was 3.74 µM, the IC90 stood at 5.68 µM and the CC50 came to 33.1 µM.

For `CCOC(=O)CSc1nnc(-c2ccccc2NC(=O)c2ccccc2)o1`, the IC50 is 2.75 µM and the IC90 is over 100 µM.

With `CC1CCCCN1C(=O)COC(=O)/C=C/c1ccc2ccccc2n1` (stereo not given), the IC50 was 0.807 µM, the IC90 was determined as 5.9 µM and the CC50 is over 40 µM.

Turning to `c1nc2n(n1)C1=C(CCCC1)C1(CCCCC1)N2`, the half-maximal inhibitory concentration (IC50) is 18.2 µM and the IC90 was over 100 µM.

As to `Cc1ccc(NC2=CC(=O)C(=O)c3ccccc32)cc1`, the half-inhibitory concentration (IC50) was 1.49 µM, the IC90 was determined as 1.94 µM and the CC50 is 6.94 µM.

As for `CCCOC(=O)c1ccc(NC(=O)c2cnccn2)cc1`, the IC50 was 15 µM and the IC90 was over 100 µM.

As for `Cc1ncn(-c2ccc(C(=O)Oc3ccccc3)cn2)n1`, the IC50 is 12.3 µM, the IC90 was over 100 µM and the CC50 was determined as 35.3 µM.

For `COC(=O)c1c(NC(=O)c2ccccc2)sc(C(=O)c2ccccc2)c1C`, the IC50 was 9.53 µM, the IC90 was 25.6 µM and the CC50 turned out to be 25.3 µM.

Regarding `Cc1[nH]n2c(=O)cc(C(C)(C)C)nc2c1-c1ccccc1`, the 50% inhibitory concentration (IC50) was 0.407 µM, the IC90 came out at 2.91 µM and the 50% cytotoxic concentration (CC50) was 13.1 µM.

`Cn1c(O)c(C=Nc2ccc3c(c2)CCC3)c(=O)n(C)c1=O` registered a concentration for an effect of 90% (IC90) of over 100 µM.

Take `CCOc1ccc(-c2nnc(N)o2)cc1`: the IC50 was 57.8 µM and the IC90 is over 100 µM.

Take `O=C(Nc1nc(-c2ccccn2)cs1)C12CC3CC(CC(O)(C3)C1)C2`: the IC50 was 3.6 µM, the IC90 was found to be 7.8 µM and the CC50 is over 40 µM.

Compound `COc1ccc(N/C=C2\CCOC2=O)cc1` gave an IC90 of over 100 µM.

Take `O=c1oc2ccccc2nc1/C=C(O)/C=C\c1ccccc1`: the IC50 is 4.33 µM and the IC90 was 13.1 µM.

Regarding `COc1ccc(NCC(=O)Nc2ccc(C#N)cc2)cc1Cl`, the IC50 is 8.28 µM, the IC90 is over 100 µM and the CC50 is over 40 µM.

For the compound `O=C(Nc1nc(NC(=O)c2ccco2)n(-c2ccccc2)n1)c1ccccc1`, the IC50 was 2.65 µM, the IC90 is 6.79 µM and the CC50 was 8.86 µM.

Turning to `O=C(Cn1nc(CNc2ccc(Cl)cc2)[n+]2c1CCCCC2)c1ccc(Br)cc1`, the IC50 was 4.63 µM and the 90% effect concentration (IC90) worked out at 7.74 µM.

On to `c1ccc2c(NC3C4CC5CC(C4)CC3C5)nc(N3CCOCC3)nc2c1` (stereo not given), for which the half-maximal inhibitory concentration (IC50) is 1.89 µM, the IC90 turned out to be 3.08 µM and the CC50 stood at 27.9 µM.

For `CCN(CC)c1ccc(N=Cc2c(C)[nH]c3ccccc23)cc1`, the IC50 was 22.1 µM, the IC90 was found to be 35.1 µM and the 50% cytotoxic concentration (CC50) is over 40 µM.

As to `Cc1cccc(-c2ncc(CN3CCC(CO)(CCCc4ccccc4)CC3)cn2)c1`, the IC50 is 13.2 µM, the IC90 is 40.7 µM and the CC50 was over 40 µM.

Take `O=C1Nc2ccccc2/C1=C/C(=O)c1cccs1`: the IC50 is 4.39 µM, the IC90 stood at 26.1 µM and the CC50 is 33.7 µM.

Turning to `c1ccc(CNc2nc(CN3CCOCC3)nc3scc(-c4ccccc4)c23)cc1`, the IC50 is 13 µM and the IC90 stood at 21.9 µM.

For the compound `CCC(=O)Nc1nnc(-c2ccc(OC)cc2)o1`, the IC50 is 6.08 µM and the IC90 was over 100 µM.

For the compound `Cn1c(-c2c(N)n(CCc3ccccc3)c3nc4ccccc4nc23)nc2ccccc21`, the IC50 was 1.83 µM, the IC90 worked out at 28.4 µM and the CC50 came to 35.1 µM.

Turning to `Cc1cc(NC(=O)CSc2nc(C(C)C)nc3sc4c(c23)CCCC4)no1`, the IC50 was 11.2 µM, the 90% effect concentration (IC90) is over 100 µM and the cytotoxic concentration (CC50) is over 40 µM.

Turning to `COC(=O)C(CC(C)C)NC(=O)/C=C/c1ccc(Cl)cc1` (stereo not given), the IC50 is 3.88 µM and the IC90 stood at 6.5 µM.

For the compound `CCCC(=O)OCCNc1cc(Sc2nccn2C)c2nonc2c1[N+](=O)[O-]`, the IC50 is 17.9 µM, the IC90 came out at 31.6 µM and the CC50 worked out at 19.2 µM.

For `Cc1sc(-n2c(C)cc(/C=N/n3cnnc3)c2C)c(C#N)c1C`, the CC50 was over 40 µM.

As for `CCc1ccc(CCC(=O)Nc2ccc(C)c(C)c2)o1`, the IC50 was 14.8 µM and the IC90 is over 100 µM.

Turning to `Cc1cc(C(=O)Cn2cncn2)c(C)n1CCc1ccc(F)cc1`, the IC90 was over 100 µM.

Take `O=c1[nH][nH]c(-c2ccccc2O)c1C(C[N+](=O)[O-])c1ccc(Cl)cc1Cl` (stereo not given): the IC50 was 10.5 µM, the IC90 stood at 15 µM and the CC50 was over 40 µM.

Compound `CCOc1ccc(NC(=O)N(C2CCCCCC2)C2CCN(C(C)=O)CC2)cc1` yielded an IC90 of over 100 µM.

With `CCOC(=O)c1ccc(NC(=O)c2ccc(OC(C)C)c(OC)c2)cc1`, the IC50 is 14.1 µM and the IC90 amounted to 28.2 µM.

In the case of `CCN(CC)c1ccc(N=Cc2ccc([N+](=O)[O-])o2)cc1`, the IC50 is 8.8 µM, the IC90 came out at 45.6 µM and the CC50 was over 40 µM.

As for `Cc1cccc(-c2noc(-c3cc4ccccc4oc3=O)n2)c1`, the IC50 is 1.28 µM and the concentration for an effect of 90% (IC90) was over 100 µM.

As to `Cc1ccc(C)c(-c2csc(NC(=O)c3cnccn3)n2)c1`, the IC50 is 2.6 µM, the IC90 is over 100 µM and the CC50 was over 40 µM.

Take `Cc1nc(Nc2ccc(Cl)c(Cl)c2)sc1C(=O)Nc1ccccc1`: the IC50 was 14.4 µM, the IC90 worked out at 38 µM and the CC50 is 20.9 µM.

Regarding `Cc1cc(C)n(-c2nc(NC(C)C)nc(NC(C)C)n2)n1`, the IC50 is 0.961 µM, the 90% effect concentration (IC90) worked out at 3.94 µM and the CC50 was over 40 µM.

On to `Clc1ccc(-c2nnc3sc(Cc4cccs4)nn23)cc1`, for which the IC50 was 19.6 µM and the IC90 was over 100 µM.

Turning to `Cc1ccc(CNCc2cc3c(C(C)(C)C)nn(-c4ccccc4)c3[nH]c2=O)cc1`, the IC50 is 8.33 µM, the IC90 amounted to 11 µM and the CC50 was over 40 µM.

For `CCC(C)c1ccc(NC(=O)COC(=O)C2=COCCO2)cc1` (stereo not given), the IC50 is 4.54 µM and the IC90 was over 100 µM.

Turning to `Cc1ccc(-c2nsc(SCC(=O)Nc3ccc4c(c3)OCO4)n2)cc1`, the IC50 is 0.892 µM and the IC90 was found to be 2.51 µM.

`COC(=O)COc1ccc(-c2ccc(F)cc2)cc1C=O`: the IC50 is 5.69 µM and the IC90 is 9.92 µM.

Consider `Cc1ccc(NC(=O)CSCC#N)cc1Cl`, for which the IC50 is 47.5 µM and the IC90 was over 100 µM.

As to `COC(=O)C(CC(C)C)NC(=O)/C=C/c1ccccc1Cl` (stereo not given), the concentration for half-maximal inhibition (IC50) is 4.67 µM and the IC90 stood at 7.81 µM.

Regarding `CCOC(=O)c1ccc(NC(=O)CCc2ccc(CC)o2)cc1`, the IC50 was 2.25 µM and the IC90 was found to be 17.2 µM.

With `Cc1ccc(C)c(N=Nc2nc3ccccc3n2C)c1`, the IC50 was 1.33 µM, the IC90 was found to be 1.7 µM and the CC50 is over 40 µM.

Consider `Cc1cc(C)c2c(CN3CCN(Cc4ccc5c(c4)OCO5)CC3)cc(=O)oc2c1C`, for which the IC50 was 19 µM and the IC90 is over 100 µM.

In the case of `Cc1nc([N+](=O)[O-])c(Br)n1Cc1ccc(Cl)c(Cl)c1`, the IC50 is 4.08 µM, the IC90 is 7.03 µM and the half-maximal cytotoxic concentration (CC50) amounted to 12.5 µM.

For `CCCc1nc2sc3ccccc3c(=O)c2c(=O)n1Cc1ccc(OC)cc1`, the IC90 was over 100 µM and the CC50 is over 40 µM.

In the case of `Cc1ccc2nc(SCC(=O)Nc3ccc4c(c3)CCC4)[nH]c2c1`, the IC90 was over 100 µM.

In turn, `CCOC(=O)c1ccc(NC(=O)c2n[nH]c(=O)c3ccccc23)cc1` returned an IC90 of over 100 µM.

As to `CCCN(CCC)CC(O)Cn1cc(/C=C/C(=O)c2ccccc2)c2ccccc21` (stereo not given), the concentration for half-maximal inhibition (IC50) is 1.5 µM, the IC90 worked out at 1.66 µM and the cytotoxic concentration (CC50) was determined as 20.3 µM.

Consider `O=C(/C=C/Sc1ccccc1)c1ccc(Cl)cc1`, for which the IC50 was 6.43 µM, the IC90 was 11.2 µM and the CC50 came out at 26.1 µM.
